≈ marks a conversion by molar mass, not a printed value.
Columns and labels:
Mus musculus [1] = experiment: Ex-vivo inhibition of BTK in C57BL/6J mouse assessed as anti-mouse IgD antibody stimulated BCR mediated CD69 level in whole blood isolated from 100 mg/kg, po bid treated mouse measured after 2 hrs post first dose by flow cytometry relative to control; type: functional; parameters: scale not given: the % may be the effect or the level left
[2] = target: T1, Tyrosine-protein kinase BTK (Mus musculus, UniProt P35991); experiment: Inhibition of C57BL/6J mouse BTK assessed as decrease in anti-mouse IgM antibody stimulated BCR mediated CD69 upregulation preincubated for 30 mins followed by antibody challenge after 18 to 24 hrs by flow cytometry
T1 sequence (P35991 whole entry): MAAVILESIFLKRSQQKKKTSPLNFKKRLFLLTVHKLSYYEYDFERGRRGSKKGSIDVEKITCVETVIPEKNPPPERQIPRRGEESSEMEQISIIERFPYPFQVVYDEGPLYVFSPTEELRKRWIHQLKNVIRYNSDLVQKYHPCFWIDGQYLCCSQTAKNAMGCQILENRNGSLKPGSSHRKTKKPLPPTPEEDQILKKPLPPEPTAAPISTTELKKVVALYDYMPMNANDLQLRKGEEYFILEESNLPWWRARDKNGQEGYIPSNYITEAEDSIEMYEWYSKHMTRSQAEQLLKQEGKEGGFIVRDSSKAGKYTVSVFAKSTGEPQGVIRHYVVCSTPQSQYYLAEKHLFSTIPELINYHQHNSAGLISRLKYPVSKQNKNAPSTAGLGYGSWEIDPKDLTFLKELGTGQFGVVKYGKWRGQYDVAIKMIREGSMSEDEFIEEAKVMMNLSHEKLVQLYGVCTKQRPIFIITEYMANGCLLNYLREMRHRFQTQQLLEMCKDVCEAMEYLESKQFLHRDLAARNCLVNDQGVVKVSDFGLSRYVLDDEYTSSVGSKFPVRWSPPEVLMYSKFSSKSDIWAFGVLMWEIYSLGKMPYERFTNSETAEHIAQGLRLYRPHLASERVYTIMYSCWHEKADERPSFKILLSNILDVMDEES

[3] = Metabolic stability in rat liver microsomes assessed as metabolism rate; type: ADME, microsome
[4] = Equilibrium aqueous solubility of the compound at pH 4; type: physicochemical
[5] = Equilibrium aqueous solubility of the compound at pH 7.4; type: physicochemical
[6] = target: T1, Tyrosine-protein kinase BTK; experiment: Inhibition of mouse BTK assessed as decrease in anti-CD3epsilon antibody stimulated TCR mediated CD69 upregulation in whole blood preincubated for 1 hr followed by antibody challenge after 4 hrs by flow cytometry
[7] = Equilibrium aqueous solubility of the compound at pH 2.1; type: physicochemical
[8] = Half life in mouse at 3 mg/kg, iv; type: ADME, organism-based; settings: in vivo
Mus musculus [9] = experiment: Ex-vivo inhibition of BTK in C57BL/6J mouse assessed as anti-mouse IgD antibody stimulated BCR mediated CD69 level in whole blood isolated from 30 mg/kg, po bid treated mouse measured after 24 hrs post first dose by flow cytometry relative to control; type: functional; parameters: scale not given: the % may be the effect or the level left
Mus musculus [10] = experiment: Ex-vivo inhibition of BTK in C57BL/6J mouse assessed as anti-mouse IgD antibody stimulated BCR mediated CD69 level in whole blood isolated from 100 mg/kg, po bid treated mouse measured after 24 hrs post first dose by flow cytometry relative to control; type: functional; parameters: scale not given: the % may be the effect or the level left
[11] = target: Receptor-type tyrosine-protein kinase FLT3 (Homo sapiens) (UniProt P36888); experiment: Inhibition of recombinant human N-terminal GST-tagged FLT3 (571 to 993 residues) expressed in baculovirus infected Sf9 cells assessed as change in enzyme activity at 1 uM in presence of 2 uM ATP relative to control; parameters: scale not given: the % may be the effect or the level left
[12] = target: Inhibitor of nuclear factor kappa-B kinase subunit beta (Homo sapiens) (UniProt O14920); experiment: Inhibition of recombinant human N-terminal GST-tagged IKKbeta expressed in baculovirus infected Sf9 cells assessed as change in enzyme activity at 1 uM in presence of 1 uM ATP relative to control; parameters: scale not given: the % may be the effect or the level left
[13] = target: Death-associated protein kinase 1 (Homo sapiens) (UniProt P53355); experiment: Inhibition of recombinant human N-terminal GST-tagged DAPK1 (1 to363 residues) expressed in baculovirus infected Sf9 cells assessed as change in enzyme activity at 1 uM in presence of 1 uM ATP relative to control; parameters: scale not given: the % may be the effect or the level left
[14] = target: Casein kinase I isoform alpha (Homo sapiens) (UniProt P48729); experiment: Inhibition of recombinant human full length N-terminal GST-tagged CK1alpha1 expressed in baculovirus infected Sf9 cells assessed as change in enzyme activity at 1 uM in presence of 1 uM ATP relative to control; parameters: scale not given: the % may be the effect or the level left
Sequence of Casein kinase I isoform alpha (Homo sapiens) (P48729 2-337 limits assumed): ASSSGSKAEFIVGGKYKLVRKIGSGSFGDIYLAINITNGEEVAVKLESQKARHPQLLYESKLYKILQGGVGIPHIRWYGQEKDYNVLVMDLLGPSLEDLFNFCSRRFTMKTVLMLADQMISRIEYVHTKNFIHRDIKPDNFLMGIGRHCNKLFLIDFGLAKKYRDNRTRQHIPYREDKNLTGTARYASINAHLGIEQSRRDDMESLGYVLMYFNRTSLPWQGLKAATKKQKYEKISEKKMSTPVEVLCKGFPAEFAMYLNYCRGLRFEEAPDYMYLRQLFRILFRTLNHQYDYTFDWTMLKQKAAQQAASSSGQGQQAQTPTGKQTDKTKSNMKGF

[15] = target: Proto-oncogene tyrosine-protein kinase Src (Homo sapiens) (UniProt P12931); experiment: Inhibition of SRC (unknown origin) assessed as change in enzyme activity in presence of 1 uM ATP relative to control; parameters: scale not given: the % may be the effect or the level left
Sequence of Proto-oncogene tyrosine-protein kinase Src (Homo sapiens) (P12931 2-536 limits assumed): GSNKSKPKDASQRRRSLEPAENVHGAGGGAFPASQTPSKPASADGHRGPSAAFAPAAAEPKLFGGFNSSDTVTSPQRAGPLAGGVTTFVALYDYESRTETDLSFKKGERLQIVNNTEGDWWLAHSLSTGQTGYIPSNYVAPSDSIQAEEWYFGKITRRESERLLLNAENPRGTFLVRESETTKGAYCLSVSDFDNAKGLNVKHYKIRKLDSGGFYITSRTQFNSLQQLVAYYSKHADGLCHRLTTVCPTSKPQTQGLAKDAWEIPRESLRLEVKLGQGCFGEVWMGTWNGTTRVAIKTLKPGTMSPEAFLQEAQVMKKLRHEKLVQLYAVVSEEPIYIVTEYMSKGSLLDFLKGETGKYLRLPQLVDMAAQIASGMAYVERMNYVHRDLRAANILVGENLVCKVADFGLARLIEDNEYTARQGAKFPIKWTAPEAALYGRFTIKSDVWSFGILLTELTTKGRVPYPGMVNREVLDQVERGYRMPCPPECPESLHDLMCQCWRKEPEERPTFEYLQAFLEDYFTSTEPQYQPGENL

[16] = target: Platelet-derived growth factor receptor beta (Homo sapiens) (UniProt P09619); experiment: Inhibition of recombinant human full length N-terminal GST-tagged PDGFRbeta (unknown origin) expressed in baculovirus infected Sf9 cells assessed as change in enzyme activity at 1 uM in presence of 1 uM ATP relative to control; parameters: scale not given: the % may be the effect or the level left
Sequence of Platelet-derived growth factor receptor beta (Homo sapiens) (P09619 whole entry): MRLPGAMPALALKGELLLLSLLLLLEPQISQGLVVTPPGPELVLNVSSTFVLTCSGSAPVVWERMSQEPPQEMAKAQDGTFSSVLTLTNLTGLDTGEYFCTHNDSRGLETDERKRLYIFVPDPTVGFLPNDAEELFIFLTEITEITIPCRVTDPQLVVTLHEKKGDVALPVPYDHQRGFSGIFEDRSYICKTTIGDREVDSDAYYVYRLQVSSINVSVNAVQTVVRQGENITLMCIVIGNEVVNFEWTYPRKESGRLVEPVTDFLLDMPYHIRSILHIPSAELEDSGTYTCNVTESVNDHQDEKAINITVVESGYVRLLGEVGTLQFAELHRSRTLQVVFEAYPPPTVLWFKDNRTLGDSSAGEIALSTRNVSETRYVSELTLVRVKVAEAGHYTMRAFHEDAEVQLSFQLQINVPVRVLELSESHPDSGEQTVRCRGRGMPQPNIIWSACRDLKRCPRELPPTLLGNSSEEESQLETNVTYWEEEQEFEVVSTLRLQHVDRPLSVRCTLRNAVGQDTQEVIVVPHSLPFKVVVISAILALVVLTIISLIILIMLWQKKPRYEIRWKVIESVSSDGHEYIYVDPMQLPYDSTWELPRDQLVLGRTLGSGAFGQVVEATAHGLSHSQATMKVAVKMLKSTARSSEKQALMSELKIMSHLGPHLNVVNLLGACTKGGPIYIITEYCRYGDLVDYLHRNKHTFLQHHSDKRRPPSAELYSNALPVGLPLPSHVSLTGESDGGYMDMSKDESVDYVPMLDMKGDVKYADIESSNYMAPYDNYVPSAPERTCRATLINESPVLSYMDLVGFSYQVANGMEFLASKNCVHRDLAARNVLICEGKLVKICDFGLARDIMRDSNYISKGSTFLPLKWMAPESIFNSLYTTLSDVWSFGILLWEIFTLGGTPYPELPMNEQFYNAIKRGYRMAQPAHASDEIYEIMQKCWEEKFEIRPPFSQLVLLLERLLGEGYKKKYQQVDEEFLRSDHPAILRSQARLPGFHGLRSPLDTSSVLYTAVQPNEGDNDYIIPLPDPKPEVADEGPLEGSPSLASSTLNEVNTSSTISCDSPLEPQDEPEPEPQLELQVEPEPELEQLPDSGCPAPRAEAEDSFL

[17] = target: Vascular endothelial growth factor receptor 3 (Homo sapiens) (UniProt P35916); experiment: Inhibition of recombinant human N-terminal GST-tagged FLT4 (800 to end residues) expressed in baculovirus infected Sf9 cells assessed as change in enzyme activity at 1 uM in presence of 2 uM ATP relative to control; parameters: scale not given: the % may be the effect or the level left
[18] = target: Ribosomal protein S6 kinase (Homo sapiens) (UniProt P51812+Q9UBS0+O75676+Q15349+O75582+P23443+Q9UK32+Q15418); experiment: Inhibition of recombinant human full length N-terminal GST-tagged p70S6K expressed in baculovirus infected Sf9 cells assessed as change in enzyme activity at 1 uM in presence of 2 uM ATP relative to control; parameters: scale not given: the % may be the effect or the level left
[19] = target: Epidermal growth factor receptor (Homo sapiens) (UniProt P00533); experiment: Inhibition of recombinant human N-terminal GST-tagged EGFR expressed in baculovirus infected Sf9 cells assessed as change in enzyme activity at 1 uM in presence of 1 uM ATP relative to control; parameters: scale not given: the % may be the effect or the level left
Sequence of Epidermal growth factor receptor (Homo sapiens) (P00533 whole entry): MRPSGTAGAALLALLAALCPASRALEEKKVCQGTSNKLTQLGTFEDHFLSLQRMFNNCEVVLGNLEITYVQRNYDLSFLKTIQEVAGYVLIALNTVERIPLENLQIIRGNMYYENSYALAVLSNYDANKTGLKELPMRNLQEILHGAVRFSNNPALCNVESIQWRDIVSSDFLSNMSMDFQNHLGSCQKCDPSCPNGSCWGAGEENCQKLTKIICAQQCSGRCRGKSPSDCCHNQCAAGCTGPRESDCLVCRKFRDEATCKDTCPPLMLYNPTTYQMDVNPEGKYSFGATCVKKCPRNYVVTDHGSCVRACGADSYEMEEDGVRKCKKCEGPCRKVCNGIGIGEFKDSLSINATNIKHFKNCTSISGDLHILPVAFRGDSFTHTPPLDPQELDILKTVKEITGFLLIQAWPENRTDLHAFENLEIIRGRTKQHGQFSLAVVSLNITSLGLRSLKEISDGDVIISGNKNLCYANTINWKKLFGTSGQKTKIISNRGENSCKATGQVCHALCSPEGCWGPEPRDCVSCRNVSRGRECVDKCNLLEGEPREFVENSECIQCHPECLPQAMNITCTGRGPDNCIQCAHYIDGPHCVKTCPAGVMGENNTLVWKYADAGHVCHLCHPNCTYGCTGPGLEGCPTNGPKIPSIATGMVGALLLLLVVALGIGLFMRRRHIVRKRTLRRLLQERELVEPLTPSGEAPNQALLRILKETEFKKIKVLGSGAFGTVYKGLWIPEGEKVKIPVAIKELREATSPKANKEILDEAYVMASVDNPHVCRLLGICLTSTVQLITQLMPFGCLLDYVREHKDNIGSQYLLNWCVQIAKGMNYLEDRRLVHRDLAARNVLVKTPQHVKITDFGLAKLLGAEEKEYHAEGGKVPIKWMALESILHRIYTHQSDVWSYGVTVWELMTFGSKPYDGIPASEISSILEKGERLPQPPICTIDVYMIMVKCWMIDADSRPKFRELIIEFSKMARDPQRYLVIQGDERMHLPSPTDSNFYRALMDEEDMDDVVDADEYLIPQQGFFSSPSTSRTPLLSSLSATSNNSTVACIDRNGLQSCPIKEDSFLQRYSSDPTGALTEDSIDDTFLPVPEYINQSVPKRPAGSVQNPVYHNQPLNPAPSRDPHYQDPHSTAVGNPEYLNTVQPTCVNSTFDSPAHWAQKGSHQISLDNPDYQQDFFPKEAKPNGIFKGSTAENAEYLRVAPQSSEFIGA

[20] = target: Fibroblast growth factor receptor 4 (Homo sapiens) (UniProt P22455); experiment: Inhibition of recombinant human N-terminal GST-tagged FGFR4 (460 to end) residues expressed in baculovirus infected Sf9 cells assessed as change in enzyme activity at 1 uM in presence of 1 uM ATP relative to control; parameters: scale not given: the % may be the effect or the level left
Sequence of Fibroblast growth factor receptor 4 (Homo sapiens) (P22455 22-802 limits assumed): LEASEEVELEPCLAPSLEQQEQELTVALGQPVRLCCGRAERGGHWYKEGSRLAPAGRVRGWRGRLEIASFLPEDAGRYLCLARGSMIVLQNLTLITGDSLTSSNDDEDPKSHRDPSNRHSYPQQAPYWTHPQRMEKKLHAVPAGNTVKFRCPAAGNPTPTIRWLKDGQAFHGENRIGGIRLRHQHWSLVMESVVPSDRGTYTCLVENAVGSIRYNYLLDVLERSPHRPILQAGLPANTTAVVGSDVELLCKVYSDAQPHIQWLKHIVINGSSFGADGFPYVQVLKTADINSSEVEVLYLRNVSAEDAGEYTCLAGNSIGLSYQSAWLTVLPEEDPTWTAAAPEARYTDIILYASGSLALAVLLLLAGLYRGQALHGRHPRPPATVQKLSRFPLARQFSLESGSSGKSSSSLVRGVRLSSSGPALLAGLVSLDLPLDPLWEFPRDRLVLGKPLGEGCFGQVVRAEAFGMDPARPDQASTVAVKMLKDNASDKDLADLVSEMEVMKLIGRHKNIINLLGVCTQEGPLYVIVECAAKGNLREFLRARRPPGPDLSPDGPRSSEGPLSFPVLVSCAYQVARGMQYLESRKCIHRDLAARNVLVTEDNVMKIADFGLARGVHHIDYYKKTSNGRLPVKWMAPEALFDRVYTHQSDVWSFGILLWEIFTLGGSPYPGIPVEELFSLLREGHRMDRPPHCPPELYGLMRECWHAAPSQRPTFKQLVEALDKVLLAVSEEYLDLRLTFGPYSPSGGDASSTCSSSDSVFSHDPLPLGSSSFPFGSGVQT

[21] = target: MAP kinase-activated protein kinase 3 (Homo sapiens) (UniProt Q16644); experiment: Inhibition of recombinant human full length N-terminal GST-tagged MAPKAPK3 expressed in baculovirus infected Sf9 cells assessed as change in enzyme activity at 1 uM in presence of 1 uM ATP relative to control; parameters: scale not given: the % may be the effect or the level left
Sequence of MAP kinase-activated protein kinase 3 (Homo sapiens) (Q16644 whole entry, looked up): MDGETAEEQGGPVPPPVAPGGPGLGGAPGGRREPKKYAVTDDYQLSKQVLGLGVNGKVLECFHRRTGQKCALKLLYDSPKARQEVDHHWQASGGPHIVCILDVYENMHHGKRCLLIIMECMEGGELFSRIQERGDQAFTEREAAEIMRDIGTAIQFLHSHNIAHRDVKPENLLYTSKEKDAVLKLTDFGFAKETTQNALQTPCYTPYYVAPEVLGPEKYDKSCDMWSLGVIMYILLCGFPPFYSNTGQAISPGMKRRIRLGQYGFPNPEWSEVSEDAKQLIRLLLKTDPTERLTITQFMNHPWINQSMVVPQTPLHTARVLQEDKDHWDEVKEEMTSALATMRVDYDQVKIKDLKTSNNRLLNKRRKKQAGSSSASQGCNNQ

[22] = target: Serine/threonine-protein kinase Chk1 (Homo sapiens) (UniProt O14757); experiment: Inhibition of recombinant human full length N-terminal GST/His tagged CHK1 expressed in baculovirus infected Sf9 cells assessed as change in enzyme activity at 1 uM in presence of 1 uM ATP relative to control; parameters: scale not given: the % may be the effect or the level left
[23] = target: Mitogen-activated protein kinase kinase kinase 9 (Homo sapiens) (UniProt P80192); experiment: Inhibition of recombinant human N-terminal GST-tagged MLK1 (1 to 433 residues) expressed in baculovirus infected Sf9 cells assessed as change in enzyme activity at 1 uM in presence of 2 uM ATP relative to control; parameters: scale not given: the % may be the effect or the level left
[24] = target: Tyrosine-protein kinase Tec (Homo sapiens) (UniProt P42680); experiment: Inhibition of recombinant full length N-terminal GST-tagged TEC (unknown origin) expressed in baculovirus infected Sf9 cells assessed as change in enzyme activity at 1 uM in presence of 2 uM ATP relative to control; parameters: scale not given: the % may be the effect or the level left
[25] = target: Insulin-like growth factor 1 receptor (Homo sapiens) (UniProt P08069); experiment: Inhibition of recombinant human N-terminal His tagged IGF1R (960 to end residues) expressed in baculovirus infected Sf9 cells assessed as change in enzyme activity at 1 uM in presence of 2 uM ATP relative to control; parameters: scale not given: the % may be the effect or the level left
[26] = target: Serine/threonine-protein kinase VRK1 (Homo sapiens) (UniProt Q99986); experiment: Inhibition of recombinant human full length N-terminal GST-tagged VRK1 expressed in baculovirus infected Sf9 cells assessed as change in enzyme activity at 1 uM in presence of 2 uM ATP relative to control; parameters: scale not given: the % may be the effect or the level left
Mus musculus [27] = experiment: Ex-vivo inhibition of BTK in C57BL/6J mouse assessed as anti-mouse IgD antibody stimulated BCR mediated CD69 level in whole blood isolated from 10 to 100 mg/kg, po bid treated mouse measured after 2 hrs post first dose by flow cytometry relative to control; type: functional; parameters: scale not given: the % may be the effect or the level left

Q: What does the source list for `CCN1CCN(Cc2ccc(-c3cc4c(-c5cccc(N6CCOc7cc(C8CC8)cc(F)c7C6=O)c5CO)ccnc4[nH]3)nc2)CC1`?
A: Activity (Mus musculus [1]): 72%; IC50 [2]: 8.4 nM; Drug metabolism [3]: <= 0.04 nmol/min/mg; solubility thermodynamic [4]: > 2000 µM; solubility thermodynamic [5]: 15 µM (≈ 9.7 µg/mL); IC50 [6]: 5060 nM; solubility thermodynamic [7]: > 2000 µM; half-life [8]: 5.6 h; Activity (Mus musculus [9]): 47%; Activity (Mus musculus [10]): 83%; Activity [11]: -5%; Activity [12]: 0%; Activity [13]: 2%; Activity [14]: -1%; Activity [15]: -33%; Activity [16]: 2%; Activity [17]: -3%; Activity [18]: 2%; Activity [19]: 2%; Activity [20]: 0%; Activity [21]: -4%; Activity [22]: -14%; Activity [23]: -6%; Activity [24]: -35%; Activity [25]: 4%; Activity [26]: 1%

Q: Which IC50 [2] does the source give for `O=C1c2c(F)cc(C3CC3)cc2OCCN1c1cccc(-c2ccnc3[nH]c(C4=CCN(C5COC5)CC4)cc23)c1CO` here?
A: 41.9 nM

Q: What about the Drug metabolism [3] of the same molecule?
A: < 0.04 nmol/min/mg

Q: What about the solubility thermodynamic [4] of the same molecule?
A: > 2000 µM

Q: And the solubility thermodynamic [5]?
A: 31 µM (≈ 18 µg/mL)

Q: What about the IC50 [6] of the same molecule?
A: > 30000 nM

Q: And the solubility thermodynamic [7]?
A: > 2000 µM

Q: What about the half-life [8] of the same molecule?
A: 1.1 h

Q: And the Activity (Mus musculus [9])?
A: 9.5%

Q: And the Activity (Mus musculus [27])?
A: >90%

Q: What about the Activity [11] of the same molecule?
A: -5%

Q: What about the Activity [12] of the same molecule?
A: 1%

Q: What about the Activity [13] of the same molecule?
A: -1%

Q: And the Activity [14]?
A: 0%

Q: And the Activity [15]?
A: -26%

Q: What about the Activity [16] of the same molecule?
A: -3%

Q: What about the Activity [17] of the same molecule?
A: -3%

Q: And the Activity [18]?
A: -28%

Q: And the Activity [19]?
A: -1%

Q: And the Activity [20]?
A: 1%

Q: And the Activity [21]?
A: 3%

Q: What about the Activity [22] of the same molecule?
A: -3%

Q: What about the Activity [23] of the same molecule?
A: 2%

Q: What about the Activity [24] of the same molecule?
A: -31%

Q: What about the Activity [25] of the same molecule?
A: -6%

Q: What about the Activity [26] of the same molecule?
A: -8%
